The text below walks through data of US20250353841A1 (BIOGEN MA INC., priority 2022, published 2025).

The test system of this assay is mutant Huntington (HTT) protein. The assay is described as follows: HTT Mutant HTRF iPSC assay (mHTT protein lowering). Type of assay: cell-based. Particulars: human iPSC derived from a HTT patient with a poly-Q49 mutation.

In the case of `Cc1cn2nc(-c3cc(F)c4nc(N(C)C5CCNC(C)(C)C5)oc4c3)cc(C)c2n1` (single isomer, unassigned) [Compound 508], the IC50 was 100 to 1000 nM.
For the molecule `Cc1cn2nc(-c3cc(F)c4nc(N(C)C5CCNC(C)(C)C5)oc4c3)cc(C)c2n1` (single isomer, unassigned) [Compound 509], the half-maximal inhibitory concentration (IC50) was 100 to 1000 nM.
The molecule `CN[C@@H]1CCC[C@H](c2cn3cc(-c4cc(F)c5nn(C)cc5c4)cc(F)c3n2)C1` (stereo in doubt) [Compound 162, rel-(1R,3S)-3-(8-fluoro-6-(7-fluoro-2-methyl-2H-indazol-5-yl)imidazo[1,2-a]pyridin-2-yl)-N-methylcyclohexan-1-amine] had an IC50 of 100 to 1000 nM.
In turn, `CN[C@H]1CCC[C@@H](c2cn3cc(-c4cc(F)c5nn(C)cc5c4)cc(F)c3n2)C1` (stereo in doubt) [Compound 163, rel-(1R,3S)-3-(8-fluoro-6-(7-fluoro-2-methyl-2H-indazol-5-yl)imidazo[1,2-a]pyridin-2-yl)-N-methylcyclohexan-1-amine] gave a 50% inhibitory concentration (IC50) of 100 to 1000 nM.
As to `Cc1cn2nc(-c3cc(F)c4nc(NC(=O)[C@H]5CN[C@@H]5C)cn4c3)cc(C)c2n1` (stereo in doubt) [Compound 286, rel-(2R,3S)-N-(6-(2,8-dimethylimidazo[1,2-b]pyridazin-6-yl)-8-fluoroimidazo[1,2-a]pyridin-2-yl)-2-methylazetidine-3-carboxamide], the IC50 was < 100 nM.
Take `Cc1cn2nc(-c3cc(F)c4nc(NC(=O)[C@@H]5CN[C@H]5C)cn4c3)cc(C)c2n1` (stereo in doubt) [Compound 287, rel-(2R,3S)-N-(6-(2,8-dimethylimidazo[1,2-b]pyridazin-6-yl)-8-fluoroimidazo[1,2-a]pyridin-2-yl)-2-methylazetidine-3-carboxamide]: the IC50 is < 100 nM.
The same measure for `CCN1CC[C@H](N(C)c2nc3c(F)cc(-c4cc(C)c5nc(C)cn5n4)cc3o2)C[C@@H]1C` (stereo in doubt) [Compound 486, rel-6-(2,8-dimethylimidazo[1,2-b]pyridazin-6-yl)-N-((2R,4R)-1-ethyl-2-methylpiperidin-4-yl)-4-fluoro-N-methylbenzo[d]oxazol-2-amine]: < 100 nM; for `CCN1CC[C@@H](N(C)c2nc3c(F)cc(-c4cc(C)c5nc(C)cn5n4)cc3o2)C[C@H]1C` (stereo in doubt) [Compound 487, rel-6-(2,8-dimethylimidazo[1,2-b]pyridazin-6-yl)-N-((2R,4R)-1-ethyl-2-methylpiperidin-4-yl)-4-fluoro-N-methylbenzo[d]oxazol-2-amine]: < 100 nM.
In the case of `Cc1cn2nc(-c3cc(F)c4nc(C5CCNCC5)cn4c3)cc(C)c2n1` [Compound 1], the IC50 is < 100 nM.
For `Cc1cn2nc(-c3cc(F)c4nc(C5CCNCC5)cn4c3)ccc2n1` [Compound 2, 6-(8-fluoro-2-(piperidin-4-yl)imidazo[1,2-a]pyridin-6-yl)-2-methylimidazo[1,2-b]pyridazine], the IC50 was < 100 nM.
Take `CCN1CCC(c2cn3cc(-c4ccc5nc(C)cn5n4)cc(F)c3n2)CC1` [Compound 3, 6-(2-(1-ethylpiperidin-4-yl)-8-fluoroimidazo[1,2-a]pyridin-6-yl)-2-methylimidazo[1,2-b]pyridazine]: the 50% inhibitory concentration (IC50) was < 100 nM.
`Cc1cn2nc(-c3cc(F)c4nc(C5CCN(C)CC5)cn4c3)ccc2n1` [Compound 4, 6-[8-fluoro-2-(1-methyl-4-piperidyl)imidazo[1,2-a]pyridin-6-yl]-2-methyl-imidazo[1,2-b]pyridazine] had an IC50 of 100 to 1000 nM.
With `CCN1CCC(c2cn3cc(-c4cc(F)c5nn(C)cc5c4)cc(F)c3n2)CC1` [Compound 5, 5-(2-(1-ethylpiperidin-4-yl)-8-fluoroimidazo[1,2-a]pyridin-6-yl)-7-fluoro-2-methyl-2H-indazole] the figure was 100 to 1000 nM.
`Cc1cc(-c2cc(F)c3nc(C4CCN(C)CC4)cn3c2)cc2cn(C)nc12` [Compound 6, 5-(8-fluoro-2-(1-methylpiperidin-4-yl)imidazo[1,2-a]pyridin-6-yl)-2,7-dimethyl-2H-indazole] gave an IC50 of 100 to 1000 nM.
Turning to `CCN1CCC(c2cn3cc(-c4ccc5nn(C)cc5c4)cc(F)c3n2)CC1` [Compound 7, 5-(2-(1-ethylpiperidin-4-yl)-8-fluoroimidazo[1,2-a]pyridin-6-yl)-2-methyl-2H-indazole], the half-maximal inhibitory concentration (IC50) lay within 1000 to 9000 nM.
With `CCN1CCC(c2cn3cc(-c4ccc5nc(C)cn5c4)cc(F)c3n2)CC1` [Compound 8, 2-(1-ethylpiperidin-4-yl)-8-fluoro-2′-methyl-6,6′-biimidazo[1,2-a]pyridine], the IC50 is 1000 to 9000 nM.
With `Cc1cn2cc(-c3cc(F)c4nc(C5CCN(C)CC5)cn4c3)cc(C)c2n1` [Compound 9, 8-fluoro-2′,8′-dimethyl-2-(1-methylpiperidin-4-yl)-6,6′-biimidazo[1,2-a]pyridine] the figure was 1000 to 9000 nM; with `Cc1cn2cc(-c3cc(F)c4nc(C5CCN(C)CC5)cn4c3)ccc2n1` [Compound 10, 8-fluoro-2′-methyl-2-(1-methylpiperidin-4-yl)-6,6′-biimidazo[1,2-a]pyridine], 1000 to 9000 nM.
With `Cn1cc2cc(-c3cc(F)c4nc(C5CCNCC5)cn4c3)ccc2n1` [Compound 11, 5-(8-fluoro-2-(piperidin-4-yl)imidazo[1,2-a]pyridin-6-yl)-2-methyl-2H-indazole] the figure was 100 to 1000 nM; with `CNCCc1cn2cc(-c3cc(C)c4nc(C)cn4n3)cc(F)c2n1` [Compound 12, 2-(6-(2,8-dimethylimidazo[1,2-b]pyridazin-6-yl)-8-fluoroimidazo[1,2-a]pyridin-2-yl)-N-methylethan-1-amine], 100 to 1000 nM; with `Cc1cn2nc(-c3cc(F)c4nc(CC5CNC5)cn4c3)cc(C)c2n1` [Compound 13, 6-(2-(azetidin-3-ylmethyl)-8-fluoroimidazo[1,2-a]pyridin-6-yl)-2,8-dimethylimidazo[1,2-b]pyridazine], 100 to 1000 nM.
Consider `Cn1cc2cc(-c3cc(F)c4nc(CC5CCCNC5)cn4c3)cc(F)c2n1` (centres unmarked) [Compound 14, 7-fluoro-5-(8-fluoro-2-(piperidin-3-ylmethyl)imidazo[1,2-a]pyridin-6-yl)-2-methyl-2H-indazole], for which the IC50 was in the range of 100 to 1000 nM.
The molecule `Cc1cn2cc(-c3cc(F)c4nc(CC5CCCNC5)cn4c3)cc(F)c2n1` (centres unmarked) [Compound 15, 8,8′-difluoro-2-methyl-2′-(piperidin-3-ylmethyl)-6,6′-biimidazo[1,2-a]pyridine] had an IC50 of 100 to 1000 nM.
The same measure for `Cn1cc2cc(-c3cc(F)c4nc(C5CCCNC5)cn4c3)ccc2n1` (centres unmarked) [Compound 16, 5-(8-fluoro-2-(piperidin-3-yl)imidazo[1,2-a]pyridin-6-yl)-2-methyl-2H-indazole]: 100 to 1000 nM; for `Cn1cc2cc(-c3cc(F)c4nc(CC5CCCNC5)cn4c3)ccc2n1` (centres unmarked) [Compound 17, 5-(8-fluoro-2-(piperidin-3-ylmethyl)imidazo[1,2-a]pyridin-6-yl)-2-methyl-2H-indazole]: 100 to 1000 nM; for `CNCCc1cn2cc(-c3cc(F)c4nn(C)cc4c3)cc(F)c2n1` [Compound 18, 2-(8-fluoro-6-(7-fluoro-2-methyl-2H-indazol-5-yl)imidazo[1,2-a]pyridin-2-yl)-N-methylethan-1-amine]: 1000 to 9000 nM.
